Laboratory results reported in article PMC12491715 (Acta Pharmaceutica Sinica. B, 2025).
Converted amounts (≈) assume the structure as drawn.

Assays:
[1] = Hydrolysis of 8 in human plasma; format: in vitro ADME
Source text: See Supporting Information Tables S4.

BALB/c mice = assay: Acute in vivo toxicity
Source text: All mice used were 9–15 weeks old wild-type BALB/c mice bred in the Laboratory of Animal Genomics at the Faculty of Veterinary Medicine, University of Ljubljana. For intravenous administration, 4 males and one female were additionally purchased from Envigo RMS Holding Corp. Mice were conventionally bred in open polycarbonate cages (Tecniplast, Buguggiate, Italy) and provided with wood chip bedding (Lignocel®, Rettenmaier and Sons, Germany). Mice were kept under standard conditions, i.e., a 12:12 dark–light cycle (LED, CCT 3000 K, ≤ 25 lux above the cage), at temperature 21–24 °C, and 50%–60% humidity. They were fed irradiated rodent diet with minimal levels of phytoestrogens (Teklad global 16% protein rodent diet®, BN 2916, Envigo, Udine, Italy) and had access to drinkable tap water ad libitum. The in vivo study was evaluated by the National Ethics Committee for Animal Experiments and approved by the Veterinary Administration of the Republic of Slovenia; license number document no. U34401-10/2021/8, U34401-10/2021/13, and U34401-10/2021/1.
According to the OECD guidelines for acute toxicity testing, compound 8 was initially tested at 10 mg/kg dosage (10-fold the intended therapeutic dose (1 mg/kg)) in 3 female mice and repeated on 3 additional animals. […] After this fasting period, the animals were weighed and compound 8 was administered by oral gavage at 200 μL/20 g body weight using flexible plastic feeding tubes (20G × 30 mm, Instech Laboratories, USA). After administration, the animals were not fed for an additional hour. The mice were then observed regularly for the first 24 h, with particular attention paid to the first 4 h, and then daily for a total of 14 days, with attention paid to the changes in respiratory rate, heart rate, skin and fur, eyes and mucous membranes, behavioural patterns, and especially to the acute CNS toxicity symptoms (tremors, twitching, salivation, diarrhoea, lethargy, sleep, coma). At the end of the 14-day observation period, all experimental animals were euthanized with CO2 and cervical dislocation.

Thermodynamic solubility = format: physicochemical; conditions: thermodynamic from solid
Description: The supernatants were diluted 1:5 with 50% MeCN or used directly for UPLC analysis (calibration curve was constructed from 0.5–100 mg/L standard solutions of compound 8).

[2] = Shake-flask partition coefficient / logD; format: physicochemical; conditions: n-octanol/PBS buffer
Description: Shake-flask partition coefficient measurement was done according to OECD guideline 107 (27. 7. 1995) and EPA OPPTS 830.7550 guideline (1996). […] […] Each solvent ratio was done in duplicates. The Eppendorf tubes were thoroughly shaken to ensure partition and centrifuged (5000 × g, 10 min) to separate the phases. Water phase (carefully sampled using needle and syringe) was transferred to HPLC vials directly, whereas n-octanol phases were diluted with MeCN (10–50×) prior to analysis. Additional dilutions were carried out, if needed.

[3] = test system: caspase-3 activity in SH-SY5Y cells; assay: Caspase-3 activity in lysates of Aβ1–42-treated cells; format: cell-based, human; conditions: 5 μmol/L compound, 5 μmol/L fibrillar Aβ1–42, 24 h
Description: Cell culture and treatments The human neuroblastoma SH-SY5Y cell line was purchased from American Type Culture Collection (Manassas, VA, USA). Cells were cultured in Advanced Dulbecco’s modified Eagle’s medium (Gibco, Thermo Fisher Scientific, Waltham, MA, USA) supplemented with 10% fetal bovine serum (FBS, Gibco), 2 mmol/L L-glutamine, 50 U/mL penicillin and 50 μg/mL streptomycin (Sigma, St. Louis, MO, USA) in a humidified atmosphere of 95% air and 5% CO2 at 37 °C, and grown to 80% confluence. Prior to cell treatment, complete medium was replaced with serum-reduced medium (i.e., with 2% FBS). Compounds were prepared as a stock solution of 50 mmol/L in DMSO.
Caspase-3 activity and Western blot analysis The activity of caspases-3 was determined in total cell lysates of the SH-SY5Y cells treated as described. […] Following cell treatment for 24 h, cell lysates were prepared, and the caspase-3 activity was assessed using the fluorescent peptide substrate N-acetyl-L-α-aspartyl-L-α-glutamyl-L-valyl-N-[2-oxo-4-(trifluoromethyl)-2H-1-benzopyran-7-yl]-L-α-asparagine (Ac-DEVD-AFC; Bachem). […] Immediately after the addition of the substrate, fluorescence was monitored continuously for 30 min at an excitation wavelength of 405 nm and an emission wavelength of 535 nm using a Tecan Safire[2] fluorescence microplate reader. […]

tau = assay: Western blot of APP/PS1 mice brain homogenates, tau; format: in vivo, C57BL/6J-TgN(APP/PS1)ZLFILAS mice; conditions: 15-day treatment, 1 or 5 mg/kg ip
hBChE = hBChE (Homo sapiens, UniProt P06276); conditions: expected nearly identical to compound 11 of the previous study (same carbamoyl residue at Ser198); cited from earlier work
Sequence of hBChE (P06276 29-602): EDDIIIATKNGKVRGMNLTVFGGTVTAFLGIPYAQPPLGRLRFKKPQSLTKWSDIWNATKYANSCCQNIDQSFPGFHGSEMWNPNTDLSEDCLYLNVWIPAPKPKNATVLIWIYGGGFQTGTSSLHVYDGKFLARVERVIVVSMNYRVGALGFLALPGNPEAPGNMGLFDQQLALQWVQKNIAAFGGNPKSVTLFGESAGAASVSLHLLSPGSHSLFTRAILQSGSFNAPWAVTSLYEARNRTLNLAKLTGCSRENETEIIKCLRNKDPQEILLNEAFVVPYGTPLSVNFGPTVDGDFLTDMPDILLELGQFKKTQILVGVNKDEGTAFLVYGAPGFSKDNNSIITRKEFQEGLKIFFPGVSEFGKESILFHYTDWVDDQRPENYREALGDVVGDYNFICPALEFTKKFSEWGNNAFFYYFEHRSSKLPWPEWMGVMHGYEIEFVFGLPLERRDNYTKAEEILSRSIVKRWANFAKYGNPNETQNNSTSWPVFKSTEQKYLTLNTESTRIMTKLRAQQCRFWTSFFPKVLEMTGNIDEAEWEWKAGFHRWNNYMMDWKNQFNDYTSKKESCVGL

With `CCN(CC)C(=O)n1cnc(C2(CC)Cc3ccccc3C2)c1` [Compound 8, N,N-Diethyl-4-(2-ethylindan-2-yl)-1H-imidazole-1-carboxamide] the “8 present after 24 h” value ([1]; control experiment, plasma pre-treated with BChE-selective covalent inhibitor isoOMPA) was over 85%, the half-life at 20 μg/L ([1]; human, plasma, 37 °C, nominal starting concentration 20 μg/L) was 5 h and the “effects in preliminary safety testing” value (BALB/c mice; 1 mg/kg p.o., mice) was “no effects were observed”. For the same molecule, the survival (BALB/c mice; 10 mg/kg p.o., 14-day observation) was “All animals survived”, the “acute cholinergic side effects (salivation, tremors)” value (BALB/c mice; 10 mg/kg p.o., mice) was “No acute cholinergic side effects” and the “effects in preliminary safety testing” value (BALB/c mice; 10 mg/kg p.o., mice) was “some adrenergic symptoms”. For the same molecule, the “onset of symptoms after administration” value (BALB/c mice; 10 mg/kg p.o., mice) was 15 to 30 min, the “time after which all effects subsided” value (BALB/c mice; 10 mg/kg p.o., mice) was 4 to 5 h and the solubility at 24 h (Thermodynamic solubility; 1% Tween 20 in water, aqueous with cosolvent or surfactant or cyclodextrin, 1% Tween 20/water) was 615 ± 172 µg/mL (≈ 1970 µM). For the same molecule, the solubility at 24 h (Thermodynamic solubility; PBS, aqueous buffer) was 100 ± 20 µg/mL (≈ 321 µM), the solubility at 24 h (Thermodynamic solubility; pH 2 solution, pH 2, aqueous buffer) was 2420 ± 108 µg/mL (≈ 7760 µM) and the solubility at 24 h (Thermodynamic solubility; pH 4 solution, pH 4, aqueous buffer) was 166 ± 12 µg/mL (≈ 533 µM). The solubility at 24 h (Thermodynamic solubility; pH 6 solution, pH 6, aqueous buffer) was 136 ± 1 µg/mL (≈ 437 µM), the solubility at 24 h (Thermodynamic solubility; pH 10 solution, pH 10, aqueous buffer) was 103 ± 17 µg/mL (≈ 331 µM) and the solubility at 24 h (Thermodynamic solubility; water) was 115 ± 26 µg/mL (≈ 369 µM). It also gave a logD ([2]; pH 0.91) of 0.3 ± 0.06, a logD ([2]; pH 1.99) of 1.18 ± 0.1 and a logD ([2]; pH 3.07) of 2.17 ± 0.25. It also gave a logD ([2]; pH 4.44) of 3.05 ± 0.1, a logD ([2]; pH 6.02) of 3.15 ± 0.14 and a logD ([2]; pH 7.4) of 3.33 ± 0.11. The logD ([2]; pH 9.55) was 3.52 ± 0.39, the “caspase-3 activity after Aβ1–42 treatment” value [3] was “significant reduction” and the “tau hyperphosphorylation in whole brain homogenates” value (tau) was “significantly lowered tau hyperphosphorylation”. For the same molecule, the “kdecarb, decarbamoylation” value (hBChE) was “∼0.22[53] ×10^–2 h^–1” and the “t1/2, decarbamoylation” value (hBChE) was “∼318[53] h”.
